Assay results reported in paper PMC12037037 (Proceedings of the National Academy of Sciences of the …, 2025).

Columns and labels:
[1] = molecular target: T1, 5-HT2A receptors (Gq activation) (Homo sapiens, UniProt P28223); assay: BRET-based assay of Gq activation; format: cell-based
T1 construct: expressed in transfected cells; host or cells: HEK293T (transient)
Procedure: (§1) IP1 Assay (5-HT2AR and 5-HT2CR). The 5-HT2AR and 5-HT2CR IPOne HTRF assays were performed at Epics
(§2) Therapeutics S.A. (Belgium, FAST-0505I) using conventional methods. Experiments were performed using the free bases
(§3) of (+)-JRT and (–)-JRT. Briefly, CHO-K1 cells expressing human recombinant 5-HT2AR grown to mid-log phase in culture
(§4) media without antibiotics were detached with PBS-EDTA, centrifuged, and resuspended in medium without antibiotics
(§5) buffer. Then, 20,000 cells were distributed in a 96-well plate and incubated overnight at 37 °C with 5% CO2. For agonist
(§6) were added to each well. The plate was incubated for 60 min at 37 °C with 5% CO2. After addition of the lysis buffer containing
(§7) IP1-d2 and anti-IP1 cryptate detection reagents, plates were incubated for 1 h at room temperature and fluorescence ratios
(§8) were measured according to the manufacturer’s specifications using the HTRF kit.
IP1 Assay (5-HT2BR). The 5-HT2BR IP1 assays were performed at Eurofins Cerep SA (Celle l’Evescault, France) using
conventional methods (Catalog #3344) as described previously.14 Experiments were performed using the free bases of (+)-
JRT and (–)-JRT. Briefly, CHO cells transfected with the human 5-HT2B receptor were suspended in a buffer containing
10 mM Hepes/NaOH (pH 7.4), 4.2 mM KCl, 146 mM NaCl, 1 mM CaCl2, 0.5 mM MgCl2, 5.5 mM glucose and 50 mM LiCl.
Then the cells were distributed in microplates at a density of ~2.104 cells/well and incubated for 30 min at 37°C in the
presence of buffer (basal control), test compound, or reference agonist. For stimulated control measurement, separate
(§9) Following incubation, the cells are lysed and the fluorescence acceptor (D2-
labeled IP1) and fluorescence donor (anti-IP1 antibody labeled with europium cryptate) were added. After 60 min at room
(§10) temperature, the fluorescence transfer was measured at lex = 337 nm and lem = 620 and 665 nm using a microplate
(§11) reader (Envision, Perkin Elmer). The IP1 concentration was determined by dividing the signal measured at 665 nm by that
measured at 620 nm (ratio).
BRET-Based GPCR Assays. […]

human 5-HT2B receptor = molecular target: T2, human 5-HT2B receptor (Homo sapiens, UniProt P41595); assay: IP1 functional assay (5-HT2BR); format: cell-based
T2 construct: host or cells: CHO
Procedure: as §1, §2, §3, §4, §5, §6, §7, §8
IP1 Assay (5-HT2BR). […]
as §9
(§12) labeled IP1) and fluorescence donor (anti-IP1 antibody labeled with europium cryptate) were added. […]
as §10, §11
measured at 620 nm (ratio). […]

C57BL/6J mice = assay: Sucrose preference test (SPT) after chronic CORT; format: in vivo; details: 1 mg/kg IP, two injections 48 h apart, CORT-sensitive mice; main effect of treatment P = 0.0364
Procedure: remained housed in groups of three for the remainder of the study. All rats were acclimated to the colony room for up to one week prior to dosing. During the period of acclimation, rats were examined and handled daily, and weighed to assure adequate health and suitability. The room temperature was maintained between 20 °C and 23 °C with a relative humidity of 30%–70%. Lab Rodent Diet 5001 (W.F. Fisher, Cat # 11015) and water were provided ad libitum. Animals were randomly assigned across treatment groups. All testing was performed during the light phase of the light/dark cycle. Behavioral testing was conducted according to established protocols approved by the IACUC committee and PGI Standard Operation Procedures (SOP). […] All animals were carefully monitored to ensure their safety in the swim test and any animal unable to maintain a posture with its nose above water was immediately removed from the water and not used further in the study. […] This test lasted for 5 min and was video recorded. A blinded experimenter manually scored the videos for swimming, climbing, and immobility behavior. Scoring of the forced swim test was performed by trained technicians using a time sampling technique in which the animal in the video recorded test was viewed every 5 seconds and the behavior observed was noted (e.g., immobile, swimming, or climbing). […]

5-HT1A = 5-HT1A (Homo sapiens, UniProt P08908); assay: Functional assay at 5-HT1A (Fig. S4); format: cell-based
Source text: Figure S4. […] Radioligand binding (RLB) (top) and IP1 functional assays (bottom) for 5-HT1A (A), 5-HT5a (B), 5-HT6 (C), and 5-HT7 (D) receptors. Agonist or antagonist mode is indicated in the title of each graph. Data represent the mean ± SEM of 2 technical replicates.
5-carboxamidotryptamine; ND = not determined for incomplete curves.
(1 picture or pasted object on this page, not shown here)

[2] = molecular target: T3, human recombinant 5-HT2AR (Homo sapiens, UniProt P28223); assay: IP1 functional assay (5-HT2AR); format: cell-based; details: 5-HT2A, functional assay relevant to G protein activation (IP1), agonist mode
T3 construct: host or cells: CHO-K1
T3 sequence (P28223 whole entry): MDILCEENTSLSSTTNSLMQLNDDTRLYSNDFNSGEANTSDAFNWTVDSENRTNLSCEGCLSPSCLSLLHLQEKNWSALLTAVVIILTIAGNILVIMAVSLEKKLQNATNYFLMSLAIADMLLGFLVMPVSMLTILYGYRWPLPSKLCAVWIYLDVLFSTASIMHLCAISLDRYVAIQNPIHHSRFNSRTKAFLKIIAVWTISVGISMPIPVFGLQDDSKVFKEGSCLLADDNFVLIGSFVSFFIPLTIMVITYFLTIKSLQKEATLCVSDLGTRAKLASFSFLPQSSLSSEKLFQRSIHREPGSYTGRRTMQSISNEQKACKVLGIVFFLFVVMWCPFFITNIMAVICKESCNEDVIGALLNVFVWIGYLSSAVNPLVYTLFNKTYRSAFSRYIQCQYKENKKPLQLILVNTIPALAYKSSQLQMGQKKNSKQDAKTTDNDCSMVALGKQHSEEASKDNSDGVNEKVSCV
Procedure: as §1, §2, §3, §4, §5, §6, §7, §8
IP1 Assay (5-HT2BR). […]
as §9, §12, §10, §11
measured at 620 nm (ratio). […]

T1 sequence (P28223 whole entry): as above
T2 sequence (P41595 whole entry): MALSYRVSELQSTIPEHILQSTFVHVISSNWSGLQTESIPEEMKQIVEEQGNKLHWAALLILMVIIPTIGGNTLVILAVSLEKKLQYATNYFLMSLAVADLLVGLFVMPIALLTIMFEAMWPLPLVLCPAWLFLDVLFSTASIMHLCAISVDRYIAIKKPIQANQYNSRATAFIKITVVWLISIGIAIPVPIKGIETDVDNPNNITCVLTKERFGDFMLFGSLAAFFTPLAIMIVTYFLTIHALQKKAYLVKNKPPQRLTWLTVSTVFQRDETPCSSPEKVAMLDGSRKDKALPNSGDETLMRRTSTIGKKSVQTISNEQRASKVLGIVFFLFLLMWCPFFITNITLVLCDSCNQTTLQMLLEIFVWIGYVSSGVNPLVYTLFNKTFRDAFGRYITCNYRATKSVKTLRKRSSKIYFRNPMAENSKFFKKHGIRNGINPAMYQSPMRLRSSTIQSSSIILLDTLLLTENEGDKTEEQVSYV
5-HT1A, sequence (P08908 whole entry): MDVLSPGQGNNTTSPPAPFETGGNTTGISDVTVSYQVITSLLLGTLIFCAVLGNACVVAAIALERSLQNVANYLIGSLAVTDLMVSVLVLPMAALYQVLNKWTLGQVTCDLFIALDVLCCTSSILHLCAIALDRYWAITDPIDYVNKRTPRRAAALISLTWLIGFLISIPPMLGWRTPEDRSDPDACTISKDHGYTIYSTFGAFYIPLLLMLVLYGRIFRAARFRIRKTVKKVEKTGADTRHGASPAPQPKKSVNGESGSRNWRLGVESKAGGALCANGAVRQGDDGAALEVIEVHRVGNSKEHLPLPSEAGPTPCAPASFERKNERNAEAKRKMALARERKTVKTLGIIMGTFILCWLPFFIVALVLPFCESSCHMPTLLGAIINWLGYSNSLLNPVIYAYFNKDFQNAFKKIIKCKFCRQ

CCN(CC)C(=O)[C@@H]1C=C2c3cccc4ccn(c34)C[C@H]2N(C)C1 [(+)-JRT]
EC50 ([1]; Gq Activation: EC50, agonist mode): 0.4 nM
EC50 ([1]; Gq Activation: EC50, antagonist mode, cotreated with 10 μM serotonin (5-HT + compound)): 931 nM
Emax ([1]; read-out: Gq Activation: EMax): 33%
Emax (human 5-HT2B receptor): 48%
Effect on CORT-induced anhedonia (sucrose preference) (C57BL/6J mice): rescued CORT-induced anhedonia
Functional activity at 5-HT1A (5-HT1A): agonist or partial agonist
Emax [2]: 81%
